These results are taken from US12509446B2, “FYN and VEGFR2 kinase inhibitors” (ROTTAPHARM BIOTECH S.R.L., priority 2019, dated 2025).

For experiment [1], the target named is Fyn (Homo sapiens (Human), UniProt P06241). Kind of experiment: Z′-LYTE in vitro Fyn kinase activity assay. It counts as biochemical. To be noted: ATP 50 μM; read-out: FYN KINASE INHIBITION IC50. As to the method:
The Fyn kinase inhibitory activity of representative examples of compounds of Formula (1) was evaluated by Z′-LYTE™ Kinase Assay Platform (Invitrogen). Compounds were evaluated towards active Fyn (full length active, molecular weight 87.1 kDa; Invitrogen). […] Samples representing the 0% inhibition (or total enzymatic activity) were in the presence of compound diluent (1% DMSO final in Reaction Buffer 50 mMHepes, 10 mM MgCl2, 1 mM EGTA, 0.01% Brij-35, pH 7.5). The kinase reaction was carried out in a total volume of 10 μl, for 60 minutes at 25° C. The 0% Phosphorylation (i.e. no ATP) and 100% Phosphorylation Assay Controls, included in each plate, allowed to calculate the percent phosphorylation achieved in the specific reaction well. Results are expressed as percentage of inhibition and the IC50 values were calculated by non-linear curve fitting using GraphPad™ Prism software (version 6 for Windows).

The target of experiment [2] is VEGFR2 (Homo sapiens (Human), UniProt P35968). Briefly: In vitro VEGFR2 kinase activity assay (Eurofins Cerep). The settings on record: read-out: VEGFR2 KINASE INHIBITION IC50. Format: biochemical. Here is the method: The VEGFR2 kinase inhibitory activity of representative examples of compounds of Formula (I) assays was evaluated in Eurofins Cerep (France). The concentration range of the inhibitors under investigation was from 10^−8 M up to 10^−5 M final concentration. Some compounds were re-tested in a concentration-range starting from 10^−9 M. The results are expressed as a percent of control activity (in the absence of test compound) and the IC50 values were determined by non-linear regression analysis of the inhibition/concentration curves generated with mean replicate values.
Chain of VEGFR2 (P35968 20-1356): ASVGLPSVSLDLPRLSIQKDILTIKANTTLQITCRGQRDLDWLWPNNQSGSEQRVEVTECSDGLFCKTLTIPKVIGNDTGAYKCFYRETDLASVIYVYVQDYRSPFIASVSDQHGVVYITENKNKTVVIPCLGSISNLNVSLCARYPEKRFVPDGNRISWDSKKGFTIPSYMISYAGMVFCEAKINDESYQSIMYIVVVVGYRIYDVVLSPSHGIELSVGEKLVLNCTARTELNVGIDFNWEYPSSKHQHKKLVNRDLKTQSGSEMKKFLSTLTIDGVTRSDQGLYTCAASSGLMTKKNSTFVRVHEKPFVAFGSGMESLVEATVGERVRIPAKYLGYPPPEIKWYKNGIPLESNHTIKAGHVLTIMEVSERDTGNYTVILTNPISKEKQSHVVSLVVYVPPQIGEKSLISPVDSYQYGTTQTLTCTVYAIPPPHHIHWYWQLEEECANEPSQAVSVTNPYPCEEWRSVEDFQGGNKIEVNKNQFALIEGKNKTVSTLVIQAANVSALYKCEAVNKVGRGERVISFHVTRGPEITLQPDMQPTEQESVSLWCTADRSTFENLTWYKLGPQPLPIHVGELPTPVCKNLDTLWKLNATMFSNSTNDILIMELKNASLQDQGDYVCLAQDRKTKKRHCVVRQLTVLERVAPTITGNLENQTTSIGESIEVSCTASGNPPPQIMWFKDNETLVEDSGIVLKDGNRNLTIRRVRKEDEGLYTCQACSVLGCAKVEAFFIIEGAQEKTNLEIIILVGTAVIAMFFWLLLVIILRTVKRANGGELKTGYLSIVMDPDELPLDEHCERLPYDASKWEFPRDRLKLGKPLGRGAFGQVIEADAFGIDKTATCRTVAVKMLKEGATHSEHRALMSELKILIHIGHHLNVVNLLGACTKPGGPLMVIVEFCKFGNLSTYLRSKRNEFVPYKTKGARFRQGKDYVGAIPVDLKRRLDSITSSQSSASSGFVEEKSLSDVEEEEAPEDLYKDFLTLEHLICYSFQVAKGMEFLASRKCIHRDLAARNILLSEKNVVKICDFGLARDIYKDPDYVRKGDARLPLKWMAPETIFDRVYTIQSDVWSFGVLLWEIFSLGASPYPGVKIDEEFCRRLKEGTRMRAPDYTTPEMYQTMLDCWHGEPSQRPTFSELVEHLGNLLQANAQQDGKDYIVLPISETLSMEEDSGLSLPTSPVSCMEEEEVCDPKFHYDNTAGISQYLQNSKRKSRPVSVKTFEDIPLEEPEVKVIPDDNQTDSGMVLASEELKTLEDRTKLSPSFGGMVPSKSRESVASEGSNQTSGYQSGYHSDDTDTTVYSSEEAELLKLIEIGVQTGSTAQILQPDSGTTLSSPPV

Experiment [3] relates to NF-kB. Briefly: Gene reporter (GR) assay, NF-kB activation after TNFα in JB6 Cl 41-5a (P+) cells. Format: cell-based, murine. Details: key to Gene reporter (GR) inhibition, no effect: ne: no effect. To be noted: for inhibition at 3 µM / inhibition at 10 µM: read-out: Gene reporter (GR) inhibition % effect at max concentration; for IC50: TNFα 2 ng/ml, non toxic concentrations, read-out: Gene reporter (GR) inhibition IC50. The source says:
To determine if the compounds of the invention were active also in a cellular model, a gene reporter assay was established in a cell line (JB6 Cl 41-5a (P+)) know to activate Fyn kinase via an inflammatory stimuli (TNFα). GR assay measures the activation of the nuclear transcription factor NF-kB, situated down-stream the Fyn activation pathway. Products active in this analysis has to penetrate in the cell and inhibit the activation pathway of NF-kB.
The murine epithelial cell line JB6 Cl 41-5a (P+) (ATCC® Cat. #CRL-2010) was stably transfected with the pGL4.32[luc2P/NFkB-RE/Hygro] vector (Promega). Clonal selection was achieved by limiting with 80 μg/ml Hygromycin B. The clones were tested for their response to TNFα stimulus.
JB6(P+) NFkB-RE-luc2P transfected cells were used for the analysis of NF-kB activity modulation, after TNFα stimulation, by Fyn-inhibitors.
Cells were pre-treated with the different compounds for 1 h and then stimulated with 2 ng/ml TNFα for 4 h. Each tested condition was analyzed in quadruplicate.
The luciferase analysis was performed with ONE-Glo™+ToxLuciferase Reporter and Cell Viability Assay kit (Promega).

Where two headings read alike, the source gives them in different places. Where only a bound is given, the exact number is not on record here.

Chain of Fyn (P06241 whole entry): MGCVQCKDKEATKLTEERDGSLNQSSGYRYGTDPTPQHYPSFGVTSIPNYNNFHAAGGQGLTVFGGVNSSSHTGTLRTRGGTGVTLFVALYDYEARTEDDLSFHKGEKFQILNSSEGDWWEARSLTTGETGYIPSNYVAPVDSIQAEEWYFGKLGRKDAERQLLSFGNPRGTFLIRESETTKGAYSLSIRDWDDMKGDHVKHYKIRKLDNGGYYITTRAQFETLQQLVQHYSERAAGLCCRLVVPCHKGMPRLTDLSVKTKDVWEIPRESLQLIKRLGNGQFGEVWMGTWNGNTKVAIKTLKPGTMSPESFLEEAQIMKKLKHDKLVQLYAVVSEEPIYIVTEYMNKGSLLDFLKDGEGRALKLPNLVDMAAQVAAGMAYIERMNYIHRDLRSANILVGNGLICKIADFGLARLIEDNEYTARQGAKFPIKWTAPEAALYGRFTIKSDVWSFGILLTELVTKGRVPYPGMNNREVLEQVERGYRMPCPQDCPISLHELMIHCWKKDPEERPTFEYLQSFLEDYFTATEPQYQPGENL

As to `Cc1nc(CN2CCOCC2)cc(Nc2cc(CCc3cc(NC(=O)c4cccc(C(F)(F)F)c4)ccc3F)[nH]n2)n1` [Compound 26, N-(4-fluoro-3-(2-(3-((2-methyl-6-(morpholinomethyl)pyrimidin-4-yl)amino)-1H-pyrazol-5-yl)ethyl)phenyl)-3-(trifluoromethyl)benzamide], the figures for the IC50 in experiment [1] and in experiment [2] were 12 nM and under 10 nM, respectively. Moreover, the inhibition at 3 µM in experiment [3] (Mus musculus, JB6 Cl 41-5a) was 50%.
Turning to `Cc1nc(CN2C[C@@H](C)O[C@@H](C)C2)cc(Nc2cc(CCc3cc(NC(=O)c4cccc(C(F)(F)F)c4)ccc3F)[nH]n2)n1` [Compound 27, N-(3-(2-(3-((6-(((2S,6R)-2,6-dimethylmorpholino)methyl)-2-methylpyrimidin-4-yl)amino)-1H-pyrazol-5-yl)ethyl)-4-fluorophenyl)-3-(trifluoromethyl)benzamide], the values for the IC50 in experiment [1] and in experiment [2] were 10 nM and 12 nM, respectively.
With `Cc1ccc(NC(=O)c2ccnc(C(C)(C)C#N)c2)cc1CCc1cc(Nc2ncccc2C)[nH]n1` [Compound 36, 2-(2-cyanopropan-2-yl)-N-(4-methyl-3-(2-(5-((3-methylpyridin-2-yl)amino)-1H-pyrazol-3-yl)ethyl)phenyl)isonicotinamide], the IC50 (as a rule, the concentration needed to halve the response being measured) is 32 nM in experiment [1]; under 10 nM in experiment [2]; 494 nM in experiment [3] (Mus musculus, JB6 Cl 41-5a).
Take `CCC1(CC)CCN(C(=O)Nc2ccc(C)c(CCc3cc(Nc4nccnc4C)[nH]n3)c2)C1` [Compound 21, 3,3-diethyl-N-(4-methyl-3-(2-(5-((3-methylpyrazin-2-yl)amino)-1H-pyrazol-3-yl)ethyl)phenyl)pyrrolidine-1-carboxamide]: in experiment [1], the IC50 came out at 5 nM. Also, in experiment [3] (Mus musculus, JB6 Cl 41-5a), the inhibition at 3 µM stood at 37%.
Turning to `Cc1nc(CN2CCCC2)cc(Nc2cc(CCc3cc(NC(=O)c4cccc(C(F)(F)F)c4)ccc3F)[nH]n2)n1` [Compound 28, N-(4-fluoro-3-(2-(3-((2-methyl-6-(pyrrolidin-1-ylmethyl)pyrimidin-4-yl)amino)-1H-pyrazol-5-yl)ethyl)phenyl)-3-(trifluoromethyl)benzamide], the IC50 in experiment [1] was 17 nM; in experiment [2], under 10 nM.
Regarding `Cc1ccc(NC(=O)c2cccc(C(F)(F)F)c2)cc1CCc1cc(NC(=O)c2ccccn2)[nH]n1` [Compound 18, N-(5-(2-methyl-5-(3-(trifluoromethyl)benzamido)phenethyl)-1H-pyrazol-3-yl)picolinamide], the IC50 was determined as 15 nM in experiment [1]; 16 nM in experiment [2]; 974 nM in experiment [3] (Mus musculus, JB6 Cl 41-5a).
For the compound `Cc1ccc(NC(=O)NC2CCC(C)(C)CC2)cc1CCc1cc(NC(=O)c2ccc(OC3CN(C(C)C)C3)cc2)[nH]n1` [Compound 23, N-(3-(5-(3-(4,4-dimethylcyclohexyl)ureido)-2-methylphenethyl)-1H-pyrazol-5-yl)-4-((1-isopropylazetidin-3-yl)oxy)benzamide], the IC50 turned out to be 5 nM in experiment [1] and 1440 nM in experiment [3] (Mus musculus, JB6 Cl 41-5a).
As for `Cc1ccc(NC(=O)N2CCC3(CCC3)C2)cc1CCc1cc(Nc2nccnc2C)[nH]n1` [Compound 20, N-(4-methyl-3-(2-(5-((3-methylpyrazin-2-yl)amino)-1H-pyrazol-3-yl)ethyl)phenyl)-6-azaspiro[3.4]octane-6-carboxamide], the IC50 in experiment [1] is 18 nM. Moreover, the inhibition at 3 µM in experiment [3] (Mus musculus, JB6 Cl 41-5a) came out at 45%.
On to `Cc1nc(Nc2cc(CCc3cc(NC(=O)c4cccc(C(F)(F)F)c4)ccc3F)n[nH]2)cc(N2CC[C@H](N(C)C)C2)n1` [Compound 32, (S)-N-(3-(2-(3-((6-(3-(dimethylamino)pyrrolidin-1-yl)-2-methylpyrimidin-4-yl)amino)-1H-pyrazol-5-yl)ethyl)-4-fluorophenyl)-3-(trifluoromethyl)benzamide], for which the IC50 in experiment [1] was 9 nM; in experiment [2], under 10 nM. Also, the inhibition at 3 µM in experiment [3] (Mus musculus, JB6 Cl 41-5a) was found to be 29%.
For the compound `CN(C)Cc1ccc(C(=O)Nc2cccc(CCc3cc(NC(=O)c4ccc(N5CCOCC5)cc4)[nH]n3)c2)cc1` [Compound 47, 4-((dimethylamino)methyl)-N-(3-(2-(5-(4-morpholinobenzamido)-1H-pyrazol-3-yl)ethyl)phenyl)benzamide], the IC50 in experiment [1] and in experiment [2] was 10 nM each time. For the same compound, the “Gene reporter (GR) inhibition, no effect” value in experiment [3] was “ne”.
Regarding `Cc1nc(Nc2cc(CCc3cc(NC(=O)c4cccc(C(F)(F)F)c4)ccc3F)[nH]n2)cc(-c2cnn(CCO)c2)n1` [Compound 42, N-(4-fluoro-3-(2-(3-((6-(1-(2-hydroxyethyl)-1H-pyrazol-4-yl)-2-methylpyrimidin-4-yl)amino)-1H-pyrazol-5-yl)ethyl)phenyl)-3-(trifluoromethyl)benzamide], the figures for the IC50 in experiment [1] and in experiment [2] were 13 nM and 20 nM, respectively. For the same compound, the inhibition at 10 µM in experiment [3] (Mus musculus, JB6 Cl 41-5a) worked out at 56%.
`Cc1nc(Nc2cc(CCc3cc(NC(=O)c4cccc(C(F)(F)F)c4)ccc3F)n[nH]2)cc(N2CCN(CCO)CC2)n1` [Compound 30, N-(4-fluoro-3-(2-(3-((6-(4-(2-hydroxyethyl)piperazin-1-yl)-2-methylpyrimidin-4-yl)amino)-1H-pyrazol-5-yl)ethyl)phenyl)-3-(trifluoromethyl) benzamide]: the “Gene reporter (GR) inhibition, no effect” value in experiment [3] is on record as “ne”.
In the case of `O=C(Nc1ccc(F)c(CCc2cc(Nc3cc4c(cn3)CN(CCO)C4)[nH]n2)c1)c1cccc(C(F)(F)F)c1` [Compound 10, N-(4-fluoro-3-(2-(5-((2-(2-hydroxyethyl)-2,3-dihydro-1H-pyrrolo[3,4-c]pyridin-6-yl)amino)-1H-pyrazol-3-yl)ethyl)phenyl)-3-(trifluoromethyl) benzamide], the IC50 in experiment [1] was 4 nM; in experiment [2], under 10 nM; in experiment [3] (Mus musculus, JB6 Cl 41-5a) it was 2000 nM.
In the case of `Cc1nc(C#N)cc(Nc2cc(CCc3cc(NC(=O)N4CCC5(CCCC5)CC4)ccc3C)n[nH]2)n1` [Compound 38, N-(3-(2-(5-((6-cyano-2-methylpyrimidin-4-yl)amino)-1H-pyrazol-3-yl)ethyl)-4-methylphenyl)-8-azaspiro [4.5] decane-8-carboxamide], the IC50 in experiment [1] stood at 2 nM. Besides, in experiment [3] (Mus musculus, JB6 Cl 41-5a), the inhibition at 10 µM amounted to 25%.
Turning to `Cc1ccc(NC(=O)c2ccnc(C(C)(C)C#N)c2)cc1CCc1cnc(Nc2cnccn2)s1` [Compound 50, 2-(2-cyanopropan-2-yl)-N-(4-methyl-3-(2-(2-(pyrazin-2-ylamino)thiazol-5-yl)ethyl)phenyl)isonicotinamide], the IC50 in experiment [1] worked out at 8 nM. Besides, the inhibition at 3 µM in experiment [3] (Mus musculus, JB6 Cl 41-5a) was 86%.
As to `Cc1ccc(NC(=O)NC2CCC(C)(C)CC2)cc1CCc1cc(NC(=O)c2ccc(C3CCN(C)CC3)cc2)[nH]n1` [Compound 25, N-(3-(5-(3-(4,4-dimethylcyclohexyl)ureido)-2-methylphenethyl)-1H-pyrazol-5-yl)-4-(1-methylpiperidin-4-yl)benzamide], the figures for the IC50 in experiment [1] and in experiment [3] were 3 nM and 1420 nM, respectively.
Turning to `Cc1nc(Nc2cc(CCc3cc(NC(=O)c4cccc(C(F)(F)F)c4)ccc3F)n[nH]2)cc(N2CC(O)C2)n1` [Compound 31, N-(4-fluoro-3-(2-(3-((6-(3-hydroxyazetidin-1-yl)-2-methylpyrimidin-4-yl)amino)-1H-pyrazol-5-yl)ethyl)phenyl)-3-(trifluoromethyl)benzamide], in experiment [3] (Mus musculus, JB6 Cl 41-5a), the inhibition at 10 µM came to 47%.
For `Cc1ccc(NC(=O)NC2CCCC2)cc1CCc1cc(NC(=O)c2ccc(N3CCN(C)CC3)cc2)[nH]n1` [Compound 24, N-(3-(5-(3-cyclopentylureido)-2-methylphenethyl)-1H-pyrazol-5-yl)-4-(4-methylpiperazin-1-yl)benzamide], the IC50 in experiment [1] amounted to 2 nM; in experiment [3] (Mus musculus, JB6 Cl 41-5a), 2330 nM.
For `CCC1(CC)CCN(C(=O)Nc2ccc(C)c(CCc3cc(Nc4cnccn4)[nH]n3)c2)C1` [Compound 22, 3,3-diethyl-N-(4-methyl-3-(2-(5-(pyrazin-2-ylamino)-1H-pyrazol-3-yl)ethyl)phenyl)pyrrolidine-1-carboxamide], the IC50 in experiment [1] came out at 7 nM; in experiment [3] (Mus musculus, JB6 Cl 41-5a) it was 1140 nM.
